These are literature values, as cited in patent US10047075B2, “Pyridines and pyrimidines and use thereof” (Purdue Pharma L.P., priority 2014, dated 2018).

Holding throughout (conditions): read-out: TTX IC50; cited from earlier work
The target of series [1] is Nav1.3 (Homo sapiens, UniProt Q9NY46).
Series [2] deals with Nav1.6 (Homo sapiens, UniProt Q9UQD0).
The target in series [3] is Nav1.8 (Homo sapiens, UniProt Q9Y5Y9).
The target in series [4] is Nav1.9 (Homo sapiens, UniProt Q9UI33).
Series [5] addresses Nav1.1 (Homo sapiens, UniProt P35498).
The target of series [6] is Nav1.2 (Homo sapiens, UniProt Q99250).
Sequence of Nav1.2 (Q99250 whole entry, looked up): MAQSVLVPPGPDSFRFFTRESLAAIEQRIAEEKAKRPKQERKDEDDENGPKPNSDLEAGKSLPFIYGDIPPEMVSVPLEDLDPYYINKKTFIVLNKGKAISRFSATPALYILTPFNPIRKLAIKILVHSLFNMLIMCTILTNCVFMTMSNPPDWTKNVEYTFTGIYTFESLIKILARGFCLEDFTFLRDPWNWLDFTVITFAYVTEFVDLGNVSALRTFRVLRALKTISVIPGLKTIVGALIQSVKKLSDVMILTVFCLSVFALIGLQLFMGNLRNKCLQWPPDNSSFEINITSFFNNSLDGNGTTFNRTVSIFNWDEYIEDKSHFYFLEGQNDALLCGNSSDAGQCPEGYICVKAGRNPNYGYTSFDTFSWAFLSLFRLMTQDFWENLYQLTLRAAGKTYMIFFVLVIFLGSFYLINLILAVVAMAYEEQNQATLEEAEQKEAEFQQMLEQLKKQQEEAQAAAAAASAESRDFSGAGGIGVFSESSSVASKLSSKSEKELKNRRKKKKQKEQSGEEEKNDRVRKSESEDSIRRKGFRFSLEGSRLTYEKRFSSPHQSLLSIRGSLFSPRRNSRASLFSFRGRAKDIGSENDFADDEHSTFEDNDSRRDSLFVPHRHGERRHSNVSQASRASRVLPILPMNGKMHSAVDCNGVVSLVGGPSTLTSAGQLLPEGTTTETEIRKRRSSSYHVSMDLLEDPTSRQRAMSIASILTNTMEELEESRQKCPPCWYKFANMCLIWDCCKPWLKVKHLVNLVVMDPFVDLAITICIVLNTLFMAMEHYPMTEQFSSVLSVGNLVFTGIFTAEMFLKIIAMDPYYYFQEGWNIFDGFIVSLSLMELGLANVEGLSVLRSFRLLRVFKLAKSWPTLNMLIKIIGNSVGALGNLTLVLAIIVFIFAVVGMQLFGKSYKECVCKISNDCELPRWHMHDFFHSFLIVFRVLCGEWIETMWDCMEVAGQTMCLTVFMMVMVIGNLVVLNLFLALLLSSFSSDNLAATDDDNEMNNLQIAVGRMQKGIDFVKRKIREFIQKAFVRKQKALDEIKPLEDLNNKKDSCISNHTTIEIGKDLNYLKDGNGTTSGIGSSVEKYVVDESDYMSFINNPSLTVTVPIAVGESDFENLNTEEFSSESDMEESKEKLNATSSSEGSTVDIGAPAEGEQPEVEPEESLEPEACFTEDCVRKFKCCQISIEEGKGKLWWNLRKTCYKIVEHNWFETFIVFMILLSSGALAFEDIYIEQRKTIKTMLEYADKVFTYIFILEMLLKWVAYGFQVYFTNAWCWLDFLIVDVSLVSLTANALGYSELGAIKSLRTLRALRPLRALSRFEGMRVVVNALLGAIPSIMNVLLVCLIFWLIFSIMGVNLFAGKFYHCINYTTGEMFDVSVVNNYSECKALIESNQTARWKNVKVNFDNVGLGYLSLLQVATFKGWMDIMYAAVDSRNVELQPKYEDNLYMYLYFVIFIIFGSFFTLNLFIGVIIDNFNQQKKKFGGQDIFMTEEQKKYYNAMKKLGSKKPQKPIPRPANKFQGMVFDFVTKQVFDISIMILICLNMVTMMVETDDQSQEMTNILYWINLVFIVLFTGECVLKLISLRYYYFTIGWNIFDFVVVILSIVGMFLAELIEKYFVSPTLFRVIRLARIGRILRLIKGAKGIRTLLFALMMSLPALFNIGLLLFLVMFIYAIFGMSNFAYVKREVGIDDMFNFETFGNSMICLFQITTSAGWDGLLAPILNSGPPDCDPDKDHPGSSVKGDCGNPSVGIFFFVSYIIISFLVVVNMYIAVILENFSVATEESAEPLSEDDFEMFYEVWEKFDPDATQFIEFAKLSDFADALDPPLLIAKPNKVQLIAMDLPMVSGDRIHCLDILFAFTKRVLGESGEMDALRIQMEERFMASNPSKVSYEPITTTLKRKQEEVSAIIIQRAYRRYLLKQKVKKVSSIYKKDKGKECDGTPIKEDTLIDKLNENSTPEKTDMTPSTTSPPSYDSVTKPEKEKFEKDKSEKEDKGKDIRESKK

Sequence of Nav1.8 (Q9Y5Y9 whole entry, looked up): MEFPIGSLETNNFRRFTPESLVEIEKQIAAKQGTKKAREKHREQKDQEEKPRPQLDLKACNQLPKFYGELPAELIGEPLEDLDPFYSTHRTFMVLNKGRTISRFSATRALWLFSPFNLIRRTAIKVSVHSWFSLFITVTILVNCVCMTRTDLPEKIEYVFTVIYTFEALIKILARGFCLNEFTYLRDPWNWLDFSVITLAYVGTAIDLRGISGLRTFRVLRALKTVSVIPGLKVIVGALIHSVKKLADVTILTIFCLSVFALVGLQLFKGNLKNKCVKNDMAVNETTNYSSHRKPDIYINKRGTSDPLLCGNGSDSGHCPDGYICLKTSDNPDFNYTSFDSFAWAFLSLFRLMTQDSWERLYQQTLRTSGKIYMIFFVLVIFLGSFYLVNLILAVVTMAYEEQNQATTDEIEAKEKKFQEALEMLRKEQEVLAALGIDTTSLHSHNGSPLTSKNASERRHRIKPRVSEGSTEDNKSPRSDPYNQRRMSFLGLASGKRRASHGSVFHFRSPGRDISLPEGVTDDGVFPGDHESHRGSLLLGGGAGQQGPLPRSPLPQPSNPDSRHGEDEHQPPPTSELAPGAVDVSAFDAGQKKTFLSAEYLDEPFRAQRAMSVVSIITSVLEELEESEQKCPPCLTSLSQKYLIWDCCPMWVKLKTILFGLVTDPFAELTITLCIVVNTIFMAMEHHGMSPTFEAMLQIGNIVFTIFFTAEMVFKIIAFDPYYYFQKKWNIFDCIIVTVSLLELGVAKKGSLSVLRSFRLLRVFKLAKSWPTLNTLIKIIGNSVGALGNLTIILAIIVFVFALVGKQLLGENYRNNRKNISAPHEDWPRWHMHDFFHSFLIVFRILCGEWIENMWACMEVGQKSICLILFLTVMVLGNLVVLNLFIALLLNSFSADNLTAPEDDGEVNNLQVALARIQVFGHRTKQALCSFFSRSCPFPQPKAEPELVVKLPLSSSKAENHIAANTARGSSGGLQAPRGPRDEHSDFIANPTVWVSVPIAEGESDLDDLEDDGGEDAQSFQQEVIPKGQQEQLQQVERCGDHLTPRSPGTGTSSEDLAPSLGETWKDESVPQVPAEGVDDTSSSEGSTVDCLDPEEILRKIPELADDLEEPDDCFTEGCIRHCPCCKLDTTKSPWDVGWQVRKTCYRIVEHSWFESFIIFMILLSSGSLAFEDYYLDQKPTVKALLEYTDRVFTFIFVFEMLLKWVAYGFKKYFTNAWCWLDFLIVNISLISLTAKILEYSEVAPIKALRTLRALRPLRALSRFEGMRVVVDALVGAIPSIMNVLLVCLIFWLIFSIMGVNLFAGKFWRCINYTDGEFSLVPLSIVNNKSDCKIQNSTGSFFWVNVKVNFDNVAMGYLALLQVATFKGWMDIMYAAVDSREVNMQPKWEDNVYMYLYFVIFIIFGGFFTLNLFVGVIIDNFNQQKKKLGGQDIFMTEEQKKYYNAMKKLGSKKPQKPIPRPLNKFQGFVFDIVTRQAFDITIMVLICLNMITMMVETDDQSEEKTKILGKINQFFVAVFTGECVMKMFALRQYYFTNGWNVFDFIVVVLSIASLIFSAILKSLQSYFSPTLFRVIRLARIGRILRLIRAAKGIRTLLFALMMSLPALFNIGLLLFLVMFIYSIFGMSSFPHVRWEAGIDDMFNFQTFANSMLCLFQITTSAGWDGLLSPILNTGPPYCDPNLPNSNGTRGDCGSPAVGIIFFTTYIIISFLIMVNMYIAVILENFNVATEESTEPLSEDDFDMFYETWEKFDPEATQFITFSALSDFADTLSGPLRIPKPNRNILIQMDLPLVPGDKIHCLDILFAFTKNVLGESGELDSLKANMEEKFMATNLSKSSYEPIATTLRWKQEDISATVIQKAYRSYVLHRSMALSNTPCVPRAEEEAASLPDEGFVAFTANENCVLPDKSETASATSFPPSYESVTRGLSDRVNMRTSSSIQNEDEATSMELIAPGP

Usually IC50 stands for the midpoint of a concentration-inhibition curve. In the case of `NC1=N[C@H](O)[C@H]2[C@H]3O[C@]4(O)O[C@@H]([C@@H](O)[C@@]2(N1)[C@@H]4O)[C@]3(O)CO` [TTX, tetrodotoxin], the IC50 was 15 nM in series [1]; 6 nM in series [2]; 50000 nM in series [3]; 1000 nM in series [4]; 10 nM in series [5]; 10 nM in series [6].
